What follows are compounds tested against SARS-CoV-2 M^pro (Severe acute respiratory syndrome coronavirus 2 (2019-nCoV) (SARS-CoV-2), UniProt P0DTD1) (assay: biochemical). Conditions: not given.

Structure (SMILES) | Mpro inhibitory activity (comparison in words)
COc1cc(O)c2c(=O)cc(-c3ccc(OC)c(-c4c(O)cc(O)c5c(=O)cc(-c6ccc(O)cc6)oc45)c3)oc2c1 [Ginkgetin] | comparable to amentoflavone

Same assay, conditions: compound at 17 μM, duplicates, 20 min pre-incubation

Structure (SMILES) | Activity (% enzyme activity by fluorescence relative to initial enzyme activity)
C=C(C)[C@H](CC=C(C)C)Cc1c(O)cc(O)c2c1O[C@H](c1ccc(O)cc1OC)CC2=O [Isokurarinone] | ++ (enzyme activity as indicated by fluorescence measurements ≥10% and <80%)
O=c1cc(-c2ccc(O)cc2)oc2c([C@@H]3O[C@H](CO)[C@@H](O)[C@H](O)[C@H]3O)c(O)c([C@@H]3OC[C@H](O)[C@H](O)[C@H]3O)c(O)c12 [Isoschaftoside] | ++ (enzyme activity as indicated by fluorescence measurements ≥10% and <80%)
C=C(C)[C@H](CC=C(C)C)Cc1c(O)cc(O)c2c1O[C@H](c1ccc(O)cc1OC)CC2=O [Leachianone A] | + (≥80% enzyme activity as indicated by fluorescence measurements)

Same assay, conditions: compound at 17 μM, duplicates, 20 min pre-incubation; read-out: Activity (% enzyme activity by fluorescence relative to initial enzyme activity)

Structure (SMILES) | remaining activity at 17 µM [%]
CC(C)=CCc1cc([C@@H]2CC(=O)c3c(O)cc(O)c(CC=C(C)C)c3O2)c(O)cc1O [Euchrestaflavanone B] | 10 to 80
O=c1c(-c2ccc(O)cc2)coc2cc(O)cc(O)c12 [Genistein] | > 80
COc1cc(O)c(CC=C(C)C)c2c1C(=O)C[C@@H](c1ccc(O)cc1)O2 [Isoxanthohumol] | > 80
O=c1c(O)c(-c2ccc(O[C@@H]3O[C@H](CO)[C@@H](O)[C@H](O)[C@H]3O)cc2)oc2cc(O)cc(O)c12 [Kaempferol-4′-O-beta-D-glucopyranoside] | 10 to 80
O=c1c(O)c(-c2ccc(O)cc2)oc2cc(O)cc(O)c12 [Kaempferol] | > 80
C=C(C)[C@H](CC=C(C)C)Cc1c(O)cc(O)c2c(=O)c(O)c(-c3ccc(O)cc3O)oc12 [Kushenol C] | 10 to 80
CC(C)=CCc1c(O)ccc(C(=O)[C@@H]2C(c3c(O)cc(O)c4c(=O)c(CC=C(C)C)c(-c5ccc(O)cc5O)oc34)C=C(C)CC2c2ccc(O)cc2O)c1O (stereo partly drawn) [Kuwanon H] | 10 to 80
CC(C)=CCc1c(O)cc(O)c2c(=O)cc(-c3ccc(O)cc3)oc12 [Licoflavone C] | > 80
CC(C)=CCc1c(O)ccc(-c2coc3cc(O)cc(O)c3c2=O)c1O [Licoisoflavone A] | > 80

Same assay, conditions: compounds evaluated at 0.015-300 μM; read-out: IC50

Structure (SMILES) | IC50 [µM]
CC(C)=CCc1cc([C@@H]2CC(=O)c3c(O)cc(O)c(CC=C(C)C)c3O2)c(O)cc1O [Euchrestaflavanone B] | 96
O=c1cc(-c2ccc(O)cc2)oc2c([C@@H]3O[C@H](CO)[C@@H](O)[C@H](O)[C@H]3O)c(O)c([C@@H]3OC[C@H](O)[C@H](O)[C@H]3O)c(O)c12 [Isoschaftoside] | 20
O=c1c(O)c(-c2ccc(O[C@@H]3O[C@H](CO)[C@@H](O)[C@H](O)[C@H]3O)cc2)oc2cc(O)cc(O)c12 [Kaempferol-4′-O-beta-D-glucopyranoside] | 12

Same assay, conditions: read-out: Activity (% enzyme activity by fluorescence relative to initial enzyme activity), compound at 17 μM, duplicates, 20 min pre-incubation

Structure (SMILES) | remaining activity at 17 µM [%]
CC(C)=CCc1c(O[C@@H]2O[C@H](CO)[C@@H](O)[C@H](O)[C@H]2O)cc(O)c2c(=O)c(O[C@@H]3O[C@@H](C)[C@H](O)[C@@H](O)[C@H]3O)c(-c3ccc(O)cc3)oc12 [Epimedoside A] | > 80
CC(C)=CCc1c(O)c(CC=C(C)C)c2occc(=O)c2c1O [Eriosemation] | > 80
C=C(C)C(O)Cc1c(O)c(CC=C(C)C)c(O)c2c(=O)c(-c3ccc(O)cc3)coc12 (stereo not drawn) [Erysenegalensein E] | > 80
CC(C)=CCc1c(O)cc(O)c2c1O[C@H](c1ccc3c(c1)C=CC(C)(C)O3)CC2=O [Euchrenone A10] | > 80
CC(C)=CCc1cc(-c2coc3c(CC=C(C)C)c(O)c(CC=C(C)C)c(O)c3c2=O)ccc1O [Euchrenone B1] | > 80
CC(C)=CCc1cc([C@@H]2CC(=O)c3c(O)cc(O)c(CC=C(C)C)c3O2)ccc1O [Euchrestaflavanone A] | > 80
CC(C)=CCc1c(O[C@@H]2O[C@H](CO)[C@@H](O)[C@H](O)[C@H]2O)cc(O)c2c1O[C@H](c1ccc(O)cc1)CC2=O [Flavaprin] | > 80
COc1cc2occ(-c3ccc(O)cc3)c(=O)c2c(O)c1CC=C(C)C [Gancaonin G] | > 80
COc1ccc(-c2coc3c(CC=C(C)C)c(O)cc(O)c3c2=O)cc1 [Gancaonin M] | > 80
COc1ccc(-c2coc3cc(O)c(CC=C(C)C)c(O)c3c2=O)c(O)c1 [Gancaonin N] | > 80
CC(C)=CCc1c(O)cc(O)c2c1O[C@H](c1ccccc1)CC2=O [Glabranin] | > 80
CC(C)=CCc1c(O)cc(O)c2c1O[C@H](c1ccccc1)[C@@H](O)C2=O [Glepidotin B] | > 80
COc1c(CC=C(C)C)c(O)cc(O)c1-c1coc2cc(O)ccc2c1=O [Glicoricone] | > 80
CC(C)=CCc1cc(-c2oc3cc(O)c(CC=C(C)C)c(O)c3c(=O)c2O)ccc1O [Glyasperin A] | > 80
COc1c(CC=C(C)C)c(O)cc2c1CC(c1ccc(O)cc1O)CO2 (stereo not drawn) [Glyasperin C] | > 80
COc1cc2c(c(OC)c1CC=C(C)C)C[C@H](c1ccc(O)cc1O)CO2 [Glyasperin D] | 10 to 80
COc1ccc(-c2oc3c(CC=C(C)C)c(O[C@@H]4O[C@H](CO)[C@@H](O)[C@H](O)[C@H]4O)cc(O)c3c(=O)c2O[C@@H]2O[C@@H](C)[C@H](O)[C@@H](O)[C@H]2O)cc1 [Icariin] | 10 to 80
COc1ccc(-c2oc3c(CC=C(C)C)c(O[C@@H]4O[C@H](CO)[C@@H](O)[C@H](O)[C@H]4O)cc(O)c3c(=O)c2O)cc1 [Icariside I] | > 80
COc1ccc(-c2oc3c(CC=C(C)C)c(O)cc(O)c3c(=O)c2O)cc1 [Icaritin] | > 80
CC(C)=CCc1c(O)cc(O)c2c(=O)c(O[C@@H]3O[C@@H](C)[C@H](O)[C@@H](O)[C@H]3O[C@@H]3OC[C@@H](O)[C@H](O)[C@H]3O)c(-c3ccc(O)cc3)oc12 [Ikarisoside F] | 10 to 80
CC(C)=CCc1cc(-c2coc3cc(O)c(CC=C(C)C)c(O)c3c2=O)cc(O)c1O [Imbricataflavone A] | > 80
COc1cc(O)c2c(=O)c(O)c(-c3ccc(O)cc3)oc2c1CC=C(C)C [Isoanhydroicaritin] | > 80
CC(C)=CCc1c(O)ccc2c1O[C@H](c1ccc(O)cc1)CC2=O [Isobavachin] | > 80
CC(C)=CCc1c(O)cc2occ(-c3ccc4c(c3)C=CC(C)(C)O4)c(=O)c2c1O [Isochandalone] | > 80
C=C(C)C(O)Cc1c(O)c(CC=C(C)C)c2occ(-c3ccc(O)cc3)c(=O)c2c1O (stereo not drawn) [Isoerysenegalensein E] | > 80

Structure (SMILES) | remaining activity at 17 µM [%]
CC(C)=CCc1cc(-c2oc3cc(O)cc(O)c3c(=O)c2O)ccc1O [Isolicoflavonol] | 10 to 80
CC(C)=CCc1cc(-c2coc3cc(O)cc(O)c3c2=O)ccc1O [Isowighteone] | > 80
CC(C)=CCc1cc([C@@H]2CCc3ccc(O)cc3O2)c(CC=C(C)C)c(O)c1O [Kazinol A] | > 80
CC(C)=CCc1c([C@@H]2CCc3ccc(O)cc3O2)cc2c(c1O)OC(C)(C)C=C2 [Kazinol B] | > 80
CC(C)=CCc1c([C@H]2CCc3ccc(O)cc3O2)ccc(O)c1O [Kazinol U] | > 80
COc1ccc(-c2oc3c(CC=C(C)C)c(O)cc(O)c3c(=O)c2O[C@@H]2O[C@@H](C)[C@H](OC(C)=O)[C@@H](O[C@@H]3O[C@H](COC(C)=O)[C@@H](O)[C@H](O)[C@H]3O)[C@H]2O)cc1 [Korepimedoside A] | 10 to 80
C=C(C)[C@H](CCC(C)(C)O)Cc1c(O)cc(OC)c2c1O[C@H](c1ccc(O)cc1O)CC2=O [Kurarinol] | > 80
C=C(C)[C@H](CC=C(C)C)Cc1c(O)cc(OC)c2c1O[C@H](c1ccc(O)cc1O)CC2=O [Kurarinone] | > 80
C=C(C)[C@H](CC=C(C)C)Cc1c(O)cc(O)c2c1O[C@H](c1ccccc1O)CC2=O [Kushenol A] | > 80
C=C(C)[C@H](CC=C(C)C)Cc1c(O)c(CC=C(C)C)c(O)c2c1O[C@H](c1ccc(O)cc1O)CC2=O [Kushenol B] | > 80
CC(C)=CCc1c(O)c(CC=C(C)C)c2c(c1O)C(=O)C[C@@H](c1ccc(O)cc1O)O2 [Kushenol E] | 10 to 80
C=C(C)[C@H](CC=C(C)C)Cc1c(O)cc(O)c2c1O[C@H](c1ccc(O)cc1O)CC2=O [Kushenol F] | > 80
C=C(C)[C@H](CC=C(C)C)Cc1c(O)cc(OC)c2c1O[C@H](c1ccc(O)cc1O)[C@@H](O)C2=O [Kushenol I] | > 80
C=C(C)[C@H](CCC(C)(C)O)Cc1c(O)cc(OC)c2c1O[C@H](c1ccc(O)cc1O)[C@H](O)C2=O [Kushenol K] | > 80
CC(C)=CCc1c(O)c(CC=C(C)C)c2c(c1O)C(=O)[C@H](O)[C@@H](c1ccc(O)cc1O)O2 [Kushenol L] | > 80
C=C(C)[C@H](CC=C(C)C)Cc1c(O)cc(OC)c2c1O[C@H](c1ccc(O)cc1O)[C@H](O)C2=O [Kushenol N] | > 80
COc1cc([C@@H]2CC(=O)c3c(O)cc(O)c(CC=C(C)C)c3O2)c(O)cc1O [Kushenol W] | > 80
C=C(C)C(CC=C(C)C)Cc1c(O)cc(O)c2c1O[C@H](c1ccc(O)cc1O)[C@@H](O)C2=O (stereo partly drawn) [Kushenol X] | > 80
CC(C)=CCCC1(C)C=Cc2c(cc3c(c2O)C(=O)C[C@@H](c2ccc(O)cc2O)O3)O1 (stereo partly drawn) [Kuwanol C] | 10 to 80
CC(C)=CCc1c(O)cc(O)c2c1O[C@H](c1ccc(O)cc1O)CC2=O [Leachianone G] | > 80
CC(C)=CCc1c(O)cc2oc(-c3ccc(O)cc3)c(O)c(=O)c2c1O [Licoflavonol] | > 80
COc1c(CC=C(C)C)c(O)cc2c1C[C@H](c1ccc(O)c(CC=C(C)C)c1O)CO2 [Licoricidin] | > 80
COc1cc(O)c(-c2coc3cc(O)ccc3c2=O)c(OC)c1CC=C(C)C [Licoricone] | > 80
COc1cc2c(c(OC)c1CC=C(C)C)C[C@H](c1ccc(O)c(CC=C(C)C)c1O)CO2 [Licorisoflavan A] | 10 to 80
CC(C)=CCc1cc(-c2coc3cc(O)c(CC=C(C)C)c(O)c3c2=O)ccc1O [Lupalbigenin] | > 80

Reference: patent US20240016777A1, “COMPOUNDS AND METHODS FOR TREATING VIRAL INFECTIONS” (priority 2020, published 2024)
